Earlier results on one compound are cited in US20230404944A1, “CANNABINOID ENCAPSULATION TECHNOLOGY” (ZELIRA THERAPEUTICS OPERATIONS PTY LTD, priority 2020, published 2023).

In the case of `C=C(C)[C@@H]1CCC(C)=C[C@H]1c1c(O)cc(CCCCC)cc1O` [CBD, cannabidiol], for the setting “plasma”, the “Oral bioavailability in plasma” value is recorded as “approximately 6%”. In addition, the “Oral bioavailability in tissues” value (tissues) is reported as roughly 1%.
